Assay results from the NIST ThermoML archive (doi:10.1021/je700662a).
Where “and” joins values, the source holds several entries; their conditions need not be identical. Identical values can stand only once.

Columns and labels:
[1] = DTA
[2] = Molar enthalpy of transition or fusion; conditions: DSC
[3] = molar heat capacity at constant pressure; conditions: 101.33 kPa, Large sample (1 g) DSC

CCCCCCCC(N)=O [octanamide]
Conditions	Molar enthalpy of transition or fusion, Crystal 1	Molar enthalpy of transition or fusion, Crystal 2	Molar enthalpy of transition or fusion, Crystal 3 [kcal/mol]	Normal melting temperature, Crystal 1	Triple point temperature, Crystal 2	Triple point temperature, Crystal 3 [K]
[1]	–	–	–	104 °C and 104.6 °C	304.5 K and 304.5 K	194.4
[2]	6.6 kcal/mol and 6.5 kcal/mol	0.232 kcal/mol and 0.237 kcal/mol	0.457	–	–	–

[3]
Conditions	molar heat capacity at constant pressure [J/K/mol]
183 K, Crystal 3	164.7
188 K, Crystal 3	169
193 K, Crystal 3	174.2
198 K, Crystal 2	180.6
203 K, Crystal 2	189.7
208 K, Crystal 2	197.1
213 K, Crystal 2	204.6
218 K, Crystal 2	213.2
223 K, Crystal 2	224.4
228 K, Crystal 2	228.2
233 K, Crystal 2	232.8
238 K, Crystal 2	234.3
243 K, Crystal 2	235.1
248 K, Crystal 2	236.3
253 K, Crystal 2	233.9
258 K, Crystal 2	236.1
263 K, Crystal 2	238.3
268 K, Crystal 2	235.4
273 K, Crystal 2	241.2
278 K, Crystal 2	242.7
283 K, Crystal 2	243.9
288 K, Crystal 2	244.9
293 K, Crystal 2	246.5
298 K, Crystal 2	245.1
303 K, Crystal 2	246.7
308 K, Crystal 1	249.3
313 K, Crystal 1	251.8

CCCC(N)=O [butanamide]
Conditions	Molar enthalpy of transition or fusion, [2] [kcal/mol]	Normal melting temperature, [1] [°C]
Crystal	4.59	114.2
Crystal 1	4.68	114.2

[3], Crystal
Conditions	molar heat capacity at constant pressure [J/K/mol]
183 K	96.4
188 K	98.3
193 K	101.7
198 K	104.1
203 K	106.4
208 K	108
213 K	109.7
218 K	112.5
223 K	114.3
228 K	116
233 K	118.1
238 K	120.8
243 K	123
248 K	125.9
253 K	127.4
258 K	130.2
263 K	132.4
268 K	135
273 K	136.8
278 K	139.3
283 K	141.5
288 K	143.7
293 K	146.4
298 K	147.7
303 K	150.3
308 K	153.5
313 K	155
318 K	158.8
323 K	161.4

CCCCCCCCCCCCCCCCCCCCCC(N)=O [docosanamide]
Crystal
Conditions	Molar enthalpy of transition or fusion	Normal melting temperature
[1]	–	110.2 °C and 111.8 °C
[2]	15.1 kcal/mol and 15.5 kcal/mol	–

[3], Crystal
Conditions	molar heat capacity at constant pressure [J/K/mol]
228 K	420.4
233 K	431.8
238 K	439.8
243 K	449.2
248 K	461.3
253 K	470.1
258 K	480.5
263 K	493
268 K	500.2
273 K	511.9
278 K	523.7
283 K	539.7
288 K	548.1
293 K	561.1
298 K	568.7

CCCCC(N)=O [pentanamide]
Conditions	Molar enthalpy of transition or fusion, Crystal 1	Molar enthalpy of transition or fusion, Crystal 2	Molar enthalpy of transition or fusion, Crystal 3 [kcal/mol]	Normal melting temperature, Crystal 1	Triple point temperature, Crystal 2	Triple point temperature, Crystal 3 [K]
[1]	–	–	–	104.1 °C and 103.6 °C	365 K and 365.4 K	211.8
[2]	4.28 kcal/mol and 4.61 kcal/mol	0.287 kcal/mol and 0.253 kcal/mol	0.454	–	–	–

[3]
Conditions	molar heat capacity at constant pressure [J/K/mol]
183 K, Crystal 3	111.5
188 K, Crystal 3	116.1
193 K, Crystal 3	118.5
198 K, Crystal 3	122.5
203 K, Crystal 3	128.9
208 K, Crystal 3	133.1
213 K, Crystal 2	139.1
218 K, Crystal 2	145.1
223 K, Crystal 2	154
228 K, Crystal 2	162.5
233 K, Crystal 2	175
238 K, Crystal 2	183.4
243 K, Crystal 2	195.4
248 K, Crystal 2	200.8
253 K, Crystal 2	199.8
258 K, Crystal 2	196.2
263 K, Crystal 2	191.6
268 K, Crystal 2	185.8
273 K, Crystal 2	189.4
278 K, Crystal 2	187.1
283 K, Crystal 2	188.4
288 K, Crystal 2	188.4
293 K, Crystal 2	190
298 K, Crystal 2	190.3
303 K, Crystal 2	192.6
308 K, Crystal 2	196.4
313 K, Crystal 2	198.4
318 K, Crystal 2	202.5
323 K, Crystal 2	204.5

CCCCCCCCCCCC(N)=O [dodecanamide]
Conditions	Molar enthalpy of transition or fusion, [2]	Normal melting temperature, [1]	Triple point temperature, [1]
Crystal 1	8.68 kcal/mol and 8.53 kcal/mol	100.2 °C and 100.7 °C	–
Crystal 2	2.32 kcal/mol and 2.15 kcal/mol	–	321.1 K and 322 K

[3], Crystal 2
Conditions	molar heat capacity at constant pressure [J/K/mol]
198 K	213.3
203 K	217.8
208 K	223.3
213 K	227.1
218 K	231.8
223 K	237.5
228 K	242.2
233 K	245.9
238 K	251.2
243 K	258.4
248 K	263
253 K	269.2
258 K	274.3
263 K	280.8
